Assay results as given in patent US9650395B2, “Antibacterial compounds and methods for use” (PTC Therapeutics, Inc., priority 2011, dated 2017).
≈ marks a conversion by molar mass, not a printed value.

Assays:
[1] = system: control Gram-negative E. coli 25922 strain; experiment: Antibacterial activity, microbroth dilution MIC, E. coli 25922; assay type: cell-based, Escherichia coli; conditions: E. coli 25922, microbroth dilution; for MIC: Escherichia coli, read-out: MIC, 25922
[2] = system: Gram-positive Staphylococcus aureus (S. aureus) 29213; experiment: Antibacterial activity, microbroth dilution MIC, S. aureus 29213; assay type: cell-based; conditions: S. aureus 29213, microbroth dilution; for MIC: Staphylococcus aureus, read-out: MIC, 29213
[3] = system: Acinetobacter baumannii (A. baumannii) BAA747; experiment: Antibacterial activity, MIC, A. baumannii BAA747; assay type: cell-based; conditions: A. baumannii BAA747; for MIC: Acinetobacter baumannii, read-out: MIC BAA747
[4] = system: E. coli ELZ4251 (MDR clinical isolate); experiment: Antibacterial activity, MIC, MDR E. coli ELZ4251; assay type: cell-based, Escherichia coli; conditions: E. coli ELZ4251, MDR clinical isolate; for MIC: Escherichia coli, read-out: MIC ELZ4251
[5] = system: resistant K. pneumoniae MXX1232 (MDR clinical isolate); experiment: Antibacterial activity, MIC, resistant K. pneumoniae MXX1232; assay type: cell-based, Klebsiella pneumoniae; conditions: Klebsiella pneumoniae; resistant K. pneumoniae MMX1232, MDR clinical isolate; read-out: MIC MMX1232
[6] = system: super sensitive Gram-negative Escherichia coli (E. coli) BAS849; experiment: Antibacterial activity, microbroth dilution MIC, E. coli BAS849; assay type: cell-based; conditions: E. coli BAS849, microbroth dilution; for MIC: Escherichia coli, read-out: MIC, BAS849
[7] = system: quinolone resistant E. coli LZ3111; experiment: Antibacterial activity, MIC, quinolone resistant E. coli LZ3111; assay type: cell-based, Escherichia coli; conditions: for MIC: Escherichia coli, read-out: MIC, LZ3111
Text: (§1) The antibacterial activity from a microbroth dilution method may be presented as the minimum inhibitory concentration (MIC in […]). The MIC value is the lowest concentration of a drug which prevents macroscopically visible bacterial growth under test conditions.
Mutations in these regions are known to confer a high level resistance to the quinolone class of antibiotics.

[8] = system: E. coli ELZ4000 (MDR clinical isolate); experiment: Antibacterial activity, MIC, MDR E. coli ELZ4000; assay type: cell-based, Escherichia coli; conditions: E. coli ELZ4000, MDR clinical isolate; for MIC: Escherichia coli, read-out: MIC ELZ4000
[9] = system: resistant A. baumannii MXX2240 (MDR clinical isolate); experiment: Antibacterial activity, MIC, resistant A. baumannii MXX2240; assay type: cell-based, Acinetobacter baumannii; conditions: Acinetobacter baumannii, resistant A. baumannii MMX2240, MDR clinical isolate; read-out: MIC MMX2240
[10] = system: Haemophilus influenzae (H. influenzae) 49247; experiment: Antibacterial activity, MIC, H. influenzae 49247; assay type: cell-based; conditions: H. influenzae 49247; for MIC: Haemophilus influenzae, read-out: MIC 49247
Summary of the method: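 A microbroth dilution method gave the minimum inhibitory concentration for each compound against H. influenzae 49247, a Gram-negative bacterium. MIC means the smallest concentration of drug at which no macroscopically visible bacterial growth appears under the conditions of the test.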

[11] = system: Moraxella catarrhalis (M. catarrhalis) 25238; experiment: Antibacterial activity, MIC, M. catarrhalis 25238; assay type: cell-based; conditions: M. catarrhalis 25238; for MIC: Moraxella catarrhalis, read-out: MIC 25238
[12] = system: Pseudomonas aeruginosa (P. aeruginosa) 27853; experiment: Antibacterial activity, MIC, P. aeruginosa 27853; assay type: cell-based; conditions: P. aeruginosa 27853; for MIC: Pseudomonas aeruginosa, read-out: MIC 27853
Text: as §1
Antibacterial activity of test compounds against the Gram-negative bacterium Pseudomonas aeruginosa (P. aeruginosa) 27853 is shown in Table 5.

[13] = system: Klebsiella pneumoniae (K. pneumoniae) 35657; experiment: Antibacterial activity, MIC, K. pneumoniae 35657; assay type: cell-based; conditions: for MIC: Klebsiella pneumoniae
[14] = system: Neisseria meningitidis (N. meningitidis) 13090; experiment: Antibacterial activity, MIC, N. meningitidis 13090; assay type: cell-based; conditions: N. meningitidis 13090; for MIC: Neisseria meningitidis, read-out: MIC 13090

Compound	MIC [1]	MIC [2]	MIC [3]	MIC [4]	MIC [5]	MIC [6]	MIC [7]	MIC [8]	MIC [9]	MIC [10]	MIC [11]	MIC [12]	MIC [13]	MIC [14]	other results
CCc1c(-c2ccc(OC)cc2)[nH]c(=O)c(C(=O)O)c1O [Cpd 25, 5-ethyl-4-hydroxy-6-(4-methoxyphenyl)-2-oxo-1,2-dihydropyridine-3-carboxylic acid]	3.5 to 12.5 µg/mL (≈ 12.1 to 43.2 µM)	12.5 to 150 µg/mL (≈ 43.2 to 519 µM)	3.5 to 12.5 µg/mL (≈ 12.1 to 43.2 µM)	12.5 to 150 µg/mL (≈ 43.2 to 519 µM)	12.5 to 150 µg/mL (≈ 43.2 to 519 µM)	< 1 µg/mL	12.5 to 150 µg/mL (≈ 43.2 to 519 µM)	12.5 to 150 µg/mL (≈ 43.2 to 519 µM)	1 to 3.5 µg/mL (≈ 3.46 to 12.1 µM)						
CCc1cc(C(=O)O)c(=O)[nH]c1-c1ccc(N(C)C)c(F)c1 [Cpd 93, 6-[4-(dimethylamino)-3-fluorophenyl]-5-ethyl-2-oxo-1,2-dihydropyridine-3-carboxylic acid]	12.5 to 150 µg/mL (≈ 41.1 to 493 µM)	12.5 to 150 µg/mL (≈ 41.1 to 493 µM)	12.5 to 150 µg/mL (≈ 41.1 to 493 µM)	12.5 to 150 µg/mL (≈ 41.1 to 493 µM)		< 1 µg/mL	12.5 to 150 µg/mL (≈ 41.1 to 493 µM)	12.5 to 150 µg/mL (≈ 41.1 to 493 µM)		< 1 µg/mL	< 1 µg/mL	12.5 to 150 µg/mL (≈ 41.1 to 493 µM)	12.5 to 150 µg/mL (≈ 41.1 to 493 µM)	< 1 µg/mL	
CCc1c(-c2ccc(N(C)C)c(F)c2)[nH]c(=O)c(C(=O)O)c1O [Cpd 94, 6-[4-(dimethylamino)-3-fluorophenyl]-5-ethyl-4-hydroxy-2-oxo-1,2-dihydropyridine-3-carboxylic acid]	12.5 to 150 µg/mL (≈ 39 to 468 µM)	12.5 to 150 µg/mL (≈ 39 to 468 µM)	12.5 to 150 µg/mL (≈ 39 to 468 µM)	12.5 to 150 µg/mL (≈ 39 to 468 µM)		< 1 µg/mL	12.5 to 150 µg/mL (≈ 39 to 468 µM)	12.5 to 150 µg/mL (≈ 39 to 468 µM)		< 1 µg/mL	< 1 µg/mL	12.5 to 150 µg/mL (≈ 39 to 468 µM)	12.5 to 150 µg/mL (≈ 39 to 468 µM)	< 1 µg/mL	
CCc1c(-c2ccc(N3CC[C@@H](O)C3)cc2)[nH]c(=O)c(C(=O)O)c1O [Cpd 124, 5-ethyl-4-hydroxy-6-{4-[(3R)-3-hydroxypyrrolidin-1-yl]phenyl}-2-oxo-1,2-dihydropyridine-3-carboxylic acid]	< 1 µg/mL	1 to 3.5 µg/mL (≈ 2.9 to 10.2 µM)	< 1 µg/mL	12.5 to 150 µg/mL (≈ 36.3 to 436 µM)	12.5 to 150 µg/mL (≈ 36.3 to 436 µM)	< 1 µg/mL	12.5 to 150 µg/mL (≈ 36.3 to 436 µM)	12.5 to 150 µg/mL (≈ 36.3 to 436 µM)	12.5 to 150 µg/mL (≈ 36.3 to 436 µM)	< 1 µg/mL	< 1 µg/mL			< 1 µg/mL	
CCc1c(-c2ccc(N3CCC(O)C3)cc2)[nH]c(=O)c(C(=O)O)c1O (stereo not shown) [Cpd 126, 5-ethyl-4-hydroxy-6-[4-(3-hydroxypyrrolidin-1-yl)phenyl]-2-oxo-1,2-dihydropyridine-3-carboxylic acid]	< 1 µg/mL	1 to 3.5 µg/mL (≈ 2.9 to 10.2 µM)	< 1 µg/mL	12.5 to 150 µg/mL (≈ 36.3 to 436 µM)	12.5 to 150 µg/mL (≈ 36.3 to 436 µM)	< 1 µg/mL	12.5 to 150 µg/mL (≈ 36.3 to 436 µM)	12.5 to 150 µg/mL (≈ 36.3 to 436 µM)	12.5 to 150 µg/mL (≈ 36.3 to 436 µM)	< 1 µg/mL	< 1 µg/mL	3.5 to 12.5 µg/mL (≈ 10.2 to 36.3 µM)		< 1 µg/mL	
CN[C@@H]1CCC[C@@H]2CN(c3ccc(-c4[nH]c(=O)c(C(=O)O)c(O)c4C)cc3)C[C@@H]21.Cl [Cpd 260, 4-hydroxy-5-methyl-6-{4-[(3aR,4R,7aS)-4-(methylamino)octahydro-2H-isoiridol-2-yl]phenyl}-2-oxo-1,2-dihydropyridine-3-carboxylic acid hydrochloride]															MIC 49247 [10]: * (an MIC value between >12.5 μg/mL and ≦150 μg/mL is indicated by a single star (*)); MIC 25238 [11]: ** (an MIC value between >3.5 μg/mL and ≦12.5 μg/mL is indicated by two stars (**)); MIC, 25922 [1]: ** (an MIC value between >3.5 μg/mL and ≦12.5 μg/mL is indicated by two stars (**)); MIC 27853 [12]: * (an MIC value between >12.5 μg/mL and ≦150 μg/mL is indicated by a single star (*)); MIC, 29213 [2]: *** (an MIC value between >1.0 μg/mL and ≦3.5 μg/mL is indicated by three stars (***)); MIC BAA747 [3]: * (an MIC value between >12.5 μg/mL and ≦150 μg/mL is indicated by a single star (*)); MIC ELZ4251 [4]: *** (an MIC value between >1.0 μg/mL and ≦3.5 μg/mL is indicated by three stars (***)); MIC, BAS849 [6]: ** (an MIC value between >3.5 μg/mL and ≦12.5 μg/mL is indicated by two stars (**)); MIC, LZ3111 ([7]; quinolone resistant E. coli LZ3111): **** (an MIC value of ≦1.0 μg/mL is indicated by four stars (****)); MIC 35657 [13]: ** (an MIC value between >3.5 μg/mL and ≦12.5 μg/mL is indicated by two stars (**)); MIC 13090 [14]: *** (an MIC value between >1.0 μg/mL and ≦3.5 μg/mL is indicated by three stars (***)); MIC ELZ4000 [8]: ** (an MIC value between >3.5 μg/mL and ≦12.5 μg/mL is indicated by two stars (**))
